Where a name gives a salt, the structure may show the parent alone. Read-outs that look alike come from different tables or passages of the source.
Legend:
[1] = molecular target: T1, Histamine H3 receptor (Rattus norvegicus, UniProt Q9QYN8); experiment: Histamine H3 receptor competition binding with [^3H]NAMHA in rat cerebral cortical membranes
Procedure: Histamine H3 receptor affinity was determined in rat cerebral cortical membranes with [^3H]NAMHA as previously described (Tedford et al., 1995). Animals were euthanized by rapid decapitation and cerebral cortical tissues were harvested and frozen on dry ice. Cerebral cortical membranes were prepared in 50 mM sodium-phosphate buffered saline (pH 7.5 at 4° C.) containing: EDTA (10 mM), phenylmethylsulfonyl fluoride (0.1 mM), chymostatin and leupeptin (each 0.2 mg/50 mL). The final membrane pellets were resuspended in water and stored frozen at −80° C. prior to use. Protein concentrations were determined using the Coomassie Plus Protein Assay (Pierce, Rockford Ill.).
Competition binding was carried out in a total volume of 0.2 mL of 50 mM sodium-phosphate buffer (pH 7.4) using ˜1 nM [^3H]NAMHA ([^3H]—N^α-methylhistamine, available from NEN Research Products of Boston, Mass.) and 0.003 to […] concentrations of the test compounds. Non-specific binding was determined using 10 μM thioperamide. Samples were incubated for 40 minutes at 25° C. and subsequently filtered through Whatman GF/C glass fiber filters pre-soaked in binding buffer with 0.3% polyethyleneimine, using an Inotech cell harvester (Inotech Biosystems International, Lansing Mich.). The filters were rapidly washed three times with Tris-NaCl buffer (25 and 145 mM, respectively, pH 7.4, 4° C.). Samples were quantitated using Ecolume scintillation cocktail (ICN Biomedicals; Costa Mesa Calif.) and a Packard model 1900TR liquid scintillation analyzer (Packard Instrument Co., Downers Grove Ill.). IC50 values were extrapolated from a plot of receptor occupancy (i.e. % bound) vs. log [competitor].

[2] = molecular target: T1, Histamine H3 receptor; conditions: radioligand Kd used in the Ki equation; read-out: Kd for [^3H]NAMHA; cited from earlier work
[3] = rat cerebral cortical membranes, ~1 nM [^3H]NAMHA, 40 minutes at 25° C., Ki=IC50/(1+([ligand]/[Kd]), read-out: Ki

T1 sequence (Q9QYN8 whole entry): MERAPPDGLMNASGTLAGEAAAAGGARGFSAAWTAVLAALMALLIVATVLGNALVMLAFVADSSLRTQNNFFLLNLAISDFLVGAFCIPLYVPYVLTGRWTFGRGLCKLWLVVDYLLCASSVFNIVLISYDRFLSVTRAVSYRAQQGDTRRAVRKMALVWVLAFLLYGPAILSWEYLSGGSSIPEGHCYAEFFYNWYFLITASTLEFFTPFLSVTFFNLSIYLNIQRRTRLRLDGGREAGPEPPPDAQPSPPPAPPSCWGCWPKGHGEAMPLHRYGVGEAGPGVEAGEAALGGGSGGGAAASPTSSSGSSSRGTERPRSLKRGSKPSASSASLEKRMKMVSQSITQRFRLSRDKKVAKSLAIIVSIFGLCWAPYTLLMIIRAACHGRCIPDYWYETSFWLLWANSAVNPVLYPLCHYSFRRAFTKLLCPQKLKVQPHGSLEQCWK

Row | Structure (SMILES) | Ki [1, 3] [nM] | other results
1 | CNC(=N)[C@@H]1C[C@H]1c1c[nH]cn1 (relative stereo) [Example 7, 4-(trans-2-N-methylamidino-cyclopropyl) Imidazole Di-hydrochloric Acid Salt] | 114 | 
2 | NC[C@@H]1C[C@H]1c1c[nH]cn1 (relative stereo) [Example 4, 4-(trans-2-aminomethyl-cyclopropyl) Imidazole Di-hydrochloric Acid Salt] |  | Ki [1]: 4.5 nM
3 | O/N=C/C1CC1c1c[nH]cn1 (stereo not drawn) [Example 5, 4-(trans-2-N-hydroxyimino-cyclopropyl) Imidazole] | 23 | 
4 | N=C(N)[C@@H]1C[C@H]1c1c[nH]cn1 (relative stereo) [Example 3, 4-(trans-2-amidino-cyclopropyl) Imidazole Di-trifluoroacetic Acid Salt] | 6.7 | 
5 | CNCCc1cnc[nH]1 [[^3H]NAMHA, [^3H]—N^α-methylhistamine] |  | Kd [2]: 0.4 nM
6 | OC[C@@H]1C[C@H]1c1c[nH]cn1 (relative stereo) [Example 6, 4-(trans-2-hydroxymethyl-cyclopropyl) Imidazole Trifluoroacetic Acid Salt] | 263 | 
7 | NC(=O)[C@@H]1C[C@H]1c1c[nH]cn1 (relative stereo) [Example 2, 4-(trans-2-aminocarbonyl-cyclopropyl) Imidazole Trifluoroacetic Acid Salt] | 127 | 
8 | N#C[C@@H]1C[C@H]1c1c[nH]cn1 (relative stereo) [Example 1, 4-(trans-2-cyano-cyclopropyl) Imidazole Trifluoroacetic Acid Salt] | 20 | 

Reference: patent US20020042400A1, “Novel alicyclic imidazoles as H3 agents” (priority 2000, published 2002)
